Reference: article PMC12022973, “Proteomimetic Strategy for the Modulation of Intrinsically Disordered Protein MYC” (Journal of the American Chemical Society, 2025)
Starred links: 1 amine or outer side, 2 acyl side, 3 side chain; linkers in the order of their positions; H or OH if unused. Positions of bridges follow the written chain, without caps; N, C: chain ends. Residues, ends and D or L forms follow the SMILES beside them. Chains are numbered I, II in the order given. X1 = c1cc(C[*:1])ccc1COCc1ccc(C[*:2])cc1

Test: Serum stability assay in 25% FBS
Type: in vitro ADME
Conditions: 25% fetal bovine serum in RPMI-1640, 37 °C, RP-HPLC C18 at 280 nm, L-tryptophan internal standard, triplicate, read-out: initial peptide remaining intact in serum
Protocol: Encouraged by the in vitro results, we evaluated the potential of CHD^Max-1 to form a complex with MYC in cellulo. We first assessed the ability of CHDs to resist proteolytic degradation in fetal bovine serum (FBS). We monitored the rate of peptide degradation under the treatment of 25% FBS over 24 h by RP-HPLC, with tryptophan as an internal standard. […] After validating the serum stability of CHD^Max-1, we tested its potential to enter live cells. We chose T24 cells, a bladder cancer cell line, for these studies because these cells express a high level of MYC.[39] We assessed the ability of fluorescein-labeled FITC–CHD^Max-1 to enter T24 cells using confocal microscopy and observed overlapped fluorescein and Hoechst nuclear stain signals, showing internalization of FITC–CHD^Max-1 (Figure 4C).
CD experiments were conducted on an Jasco J-1500 Circular Dichroism spectrometer equipped with a temperature controller using 1 mm length cells and a scan speed of 4.0 nm/min at 298 K. The spectra were averaged over 5 scans with baseline subtraction. […] The concentrations of each peptide were determined by the UV absorption at 280 nm.
Proteolytic stability of CHDMax-1 was assessed in 25% serum by using fetal bovine serum (FBS, Gibco) in Roswell Park Memorial Institute (RPMI)-1640 medium at 37 °C. […] Time points of 0 h, 6 h, and 24 h were analyzed in triplicate. […]

CC[C@H](C)[C@H](NC(=O)[C@H](CCCCN)NC(=O)[C@H](CCC(=O)O)NC(=O)[C@H](CCCNC(=N)N)NC(=O)[C@H](CC(C)C)NC(C)=O)C(=O)N[C@@H](C)C(=O)N[C@H](C(=O)N[C@@H](CC(C)C)C(=O)N[C@@H](CCC(N)=O)C(=O)N[C@@H](Cc1c[nH]c2ccccc12)C(=O)N[C@@H](CSCc1ccc(COCc2ccc(CSC[C@H](NC(=O)[C@H](CC(C)C)NC(=O)[C@H](CCC(=O)O)NC(=O)[C@H](CCC(=O)O)NC(=O)[C@@H](NC(=O)[C@H](CCC(=O)O)NC(=O)[C@H](Cc3c[nH]c4ccccc34)NC(=O)[C@H](CCC(N)=O)NC(=O)[C@H](Cc3c[nH]cn3)NC(=O)[C@@H](NC(=O)[C@H](CCC(=O)O)NC(=O)[C@H](CC(N)=O)NC(=O)[C@H](CCCCN)NC(=O)[C@H](CCCNC(=N)N)NC(=O)[C@H](CCCNC(=N)N)NC(=O)[C@H](CC(C)C)NC(C)=O)[C@@H](C)O)[C@@H](C)CC)C(N)=O)cc2)cc1)C(=O)N[C@H](C(=O)N[C@@H](CCC(=O)O)C(=O)N[C@@H](CCC(=O)O)C(=O)N[C@@H](CC(C)C)C(=O)N[C@@H](CCCNC(=N)N)C(=O)N[C@@H](CCCCN)C(N)=O)[C@@H](C)CC)[C@@H](C)O [CHD^Max-1] (I: Ac-LREKIATLQWCIEELRK-NH2 / II: Ac-LRRKNETHQWEIEELC-NH2; linker I:11-II:16 via X1)
remaining at 24 h: ~80%
